Consider five substances from patent US20170045513A1, “METHODS OF DIAGNOSING CELIAC DISEASE USING IP-10” (ImmusanT, Inc., priority 2014, published 2017).

Non-standard residues stand in square brackets, D forms with d. pGlu = O=C1CC[C@@H](C(=O)O)N1

This test has as its system gluten-reactive T cells. The test is described as follows: Overnight IFNγ ELISpot assay with fresh PBMC. In kind it is cell-based, human. The note with it: for Percent of maximal response to individual gluten peptides, ELISp: after oral gluten challenge; for IFNγ ELISpot % max Mean: n = 5, blood after oral gluten challenge, individual peptides 5 μM (Peptide 2* of P14, Pepscan: 10 μg/mL (5.45 μM)). In short, it runs like this:
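Read-out is IFNγ spot-forming units per well, counted automatically after overnight culture of fresh PBMC (0.4 million/well) with single peptides (duplicate) or pools (triplicate). Donors: HLA-DQ2.5+ celiac patients on gluten-free diet, bled pre- and day 6 after 3-day oral gluten challenge.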

Turning to “(pE)QPFPQPEQPIPVQPEQS-amide ([pGlu]QPFPQPEQPIPVQPEQS-NH2; SMILES CC[C@H](C)[C@H](NC(=O)[C@@H]1CCCN1C(=O)[C@H](CCC(N)=O)NC(=O)[C@H](CCC(=O)O)NC(=O)[C@@H]1CCCN1C(=O)[C@H](CCC(N)=O)NC(=O)[C@@H]1CCCN1C(=O)[C@H](Cc1ccccc1)NC(=O)[C@@H]1CCCN1C(=O)[C@H](CCC(N)=O)NC(=O)[C@@H]1CCC(=O)N1)C(=O)N1CCC[C@H]1C(=O)N[C@H](C(=O)N[C@@H](CCC(N)=O)C(=O)N1CCC[C@H]1C(=O)N[C@@H](CCC(=O)O)C(=O)N[C@@H](CCC(N)=O)C(=O)N[C@@H](CO)C(N)=O)C(C)C) [Peptide 4]”, the “IFNγ ELISpot % max Mean” value stood at 24 % max. Moreover, the “Percent of maximal response to individual gluten peptides, ELISp” value (“Percent of maximal response” below) (Subject 3, Max. 18 SFU) is 17 % of max. Also, for the setting “Subject 4, Max. 36 SFU”, the “Percent of maximal response” value is given as 44 % of max. In addition, the “Percent of maximal response” value (Subject 6, Max. 16 SFU) is listed as 19 % of max. Further, the “Percent of maximal response” value (Subject 8, Max. 17 SFU) is listed as 12 % of max. The “Percent of maximal response” value (Subject 10, Max. 11 SFU) is given as 27 % of max.

For the substance “(pE)QPFPQPEQPTPIQPEQP-amide ([pGlu]QPFPQPEQPTPIQPEQP-NH2; SMILES CC[C@H](C)[C@H](NC(=O)[C@@H]1CCCN1C(=O)[C@@H](NC(=O)[C@@H]1CCCN1C(=O)[C@H](CCC(N)=O)NC(=O)[C@H](CCC(=O)O)NC(=O)[C@@H]1CCCN1C(=O)[C@H](CCC(N)=O)NC(=O)[C@@H]1CCCN1C(=O)[C@H](Cc1ccccc1)NC(=O)[C@@H]1CCCN1C(=O)[C@H](CCC(N)=O)NC(=O)[C@@H]1CCC(=O)N1)[C@@H](C)O)C(=O)N[C@@H](CCC(N)=O)C(=O)N1CCC[C@H]1C(=O)N[C@@H](CCC(=O)O)C(=O)N[C@@H](CCC(N)=O)C(=O)N1CCC[C@H]1C(N)=O) [Peptide 5]”, the “IFNγ ELISpot % max Mean” value is 22 % max. In addition, the “Percent of maximal response” value (Subject 3, Max. 18 SFU) is recorded as 17 % of max. Besides, where the note is “Subject 4, Max. 36 SFU”, the “Percent of maximal response” value is 19 % of max. Also, under “Subject 6, Max. 16 SFU”, the “Percent of maximal response” value is 0 % of max. Moreover, the “Percent of maximal response” value (Subject 8, Max. 17 SFU) is listed as 18 % of max. Besides, the “Percent of maximal response” value (Subject 10, Max. 11 SFU) is 55 % of max.

On to “(pE)QPPFSEQEQPVLPQ-amide (N-terminal pyroglutamate; C-terminal amide) [Peptide 13]”, for which the “IFNγ ELISpot % max Mean” value came out at 2 % max. For the same substance, the “Percent of maximal response” value (Subject 3, Max. 18 SFU) is 6 % of max. Further, the “Percent of maximal response” value (Subject 4, Max. 36 SFU) is 6 % of max. Further, where the note is “Subject 6, Max. 16 SFU”, the “Percent of maximal response” value was 0 % of max. Also, the “Percent of maximal response” value (Subject 8, Max. 17 SFU) is 0 % of max. Also, the “Percent of maximal response” value (Subject 10, Max. 11 SFU) was 0 % of max.

For the substance “(pE)QPYPQPELPYPQPQ-amide ([pGlu]QPYPQPELPYPQPQ-NH2; SMILES CC(C)C[C@H](NC(=O)[C@H](CCC(=O)O)NC(=O)[C@@H]1CCCN1C(=O)[C@H](CCC(N)=O)NC(=O)[C@@H]1CCCN1C(=O)[C@H](Cc1ccc(O)cc1)NC(=O)[C@@H]1CCCN1C(=O)[C@H](CCC(N)=O)NC(=O)[C@@H]1CCC(=O)N1)C(=O)N1CCC[C@H]1C(=O)N[C@@H](Cc1ccc(O)cc1)C(=O)N1CCC[C@H]1C(=O)N[C@@H](CCC(N)=O)C(=O)N1CCC[C@H]1C(=O)N[C@@H](CCC(N)=O)C(N)=O) [Peptide 15]”, the “IFNγ ELISpot % max Mean” value stood at 13 % max. In addition, the “Percent of maximal response” value (Subject 3, Max. 18 SFU) is recorded as 11 % of max. For the setting “Subject 4, Max. 36 SFU”, the “Percent of maximal response” value is on record as 17 % of max. For the same substance, the “Percent of maximal response” value (Subject 6, Max. 16 SFU) is 31 % of max. Moreover, under “Subject 8, Max. 17 SFU”, the “Percent of maximal response” value is 6 % of max. The “Percent of maximal response” value (Subject 10, Max. 11 SFU) is 0 % of max.

Regarding “(pE)SGEGSFQPSQENPQ-amide ([pGlu]SGEGSFQPSQENPQ-NH2; SMILES NC(=O)CC[C@H](NC(=O)[C@@H]1CCCN1C(=O)[C@H](CC(N)=O)NC(=O)[C@H](CCC(=O)O)NC(=O)[C@H](CCC(N)=O)NC(=O)[C@H](CO)NC(=O)[C@@H]1CCCN1C(=O)[C@H](CCC(N)=O)NC(=O)[C@H](Cc1ccccc1)NC(=O)[C@H](CO)NC(=O)CNC(=O)[C@H](CCC(=O)O)NC(=O)CNC(=O)[C@H](CO)NC(=O)[C@@H]1CCC(=O)N1)C(N)=O) [Peptide 9]”, the “IFNγ ELISpot % max Mean” value was found to be 1 % max. For the same substance, the “Percent of maximal response” value (Subject 3, Max. 18 SFU) is 0 % of max. For the same substance, the “Percent of maximal response” value (Subject 4, Max. 36 SFU) is 0 % of max. The “Percent of maximal response” value (Subject 6, Max. 16 SFU) was 0 % of max. For the same substance, the “Percent of maximal response” value (Subject 8, Max. 17 SFU) is recorded as 6 % of max. Also, the “Percent of maximal response” value (Subject 10, Max. 11 SFU) is on record as 0 % of max.
